We go through 79 compounds from the METLIN SMRT retention time set (Domingo-Almenara et al. 2019).

This data set is described as follows: gradient 5% acetonitrile 3 min, to 50% in 2 min, to 85% in 15 min, held 3 min, 100 µL/min. The conditions noted are these: column: Zorbax Extend-C18 2.1 x 50 mm; eluents: water / acetonitrile, 0.1% formic acid. A digest of the protocol:
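Pure standards were run in mixtures of ~100 molecules by HPLC coupled to a quadrupole time-of-flight mass spectrometer. The column was a Zorbax Extend-C18 (2.1 × 50 mm, 1.8 μm) at 100 μL/min, with water and acetonitrile each containing 0.1% formic acid, in positive and negative ionization mode. Dead and dwell volumes were 40 μL and 900 μL. Retention time was taken from computationally picked adduct peaks, each manually inspected, with data collected over 3 months.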
On to `CCCCN1CC(c2nc3ccccc3n2CC(=O)N(C)c2ccccc2)CC1=O` (centres undefined), for which the RP-LC retention time was found to be 700 s. The value for `Cc1ccc(Cn2nc(C(=O)NCc3ccco3)ccc2=O)cc1` was 788 s. As for `COc1ccc(CCc2nc3nccc(-c4cccnc4)n3n2)cc1OC`, the RP-LC retention time turned out to be 666 s. The result for `CCN1C(=O)c2cc(C(=O)NCc3ccc(N(C)C)cc3)nn2CC1(C)C(=O)NC1CCCC1` (centres undefined) reads 570 s; that for `CCc1nc(-c2csc(S(=O)(=O)N3CCCC(C(=O)Nc4ccccc4Cl)C3)c2)no1` (centres undefined), 1020 s; that for `NC(=O)c1ccc(NC(=O)C2CCN(c3cc(N4CCCCC4)ncn3)CC2)cc1`, 595 s.

With `O=C(C1CCCN(c2ncnc3c2nc2n3CCCCC2)C1)N1CCC(N2CCCCC2)CC1` (centres undefined), the RP-LC retention time was found to be 590 s.

Compound `CC1=C(c2ccccc2)S(=O)(=O)N=C1N1CCCN(C(=O)c2cc(F)ccc2F)CC1` gave an RP-LC retention time of 827 s. The value for `COc1ccc(CNC(=O)N2CCN(Cc3nc4cc(Cl)ccc4o3)CC2)cc1` was 667 s; that for `Cc1ccc(N2CC(c3noc(-c4ccc(C#N)cc4)n3)CC2=O)cc1` (centres undefined) was 947 s; that for `O=C(c1ccoc1)N1CCC(c2nc(-c3ccccc3)no2)C1` (centres undefined) was 773 s. The result for `COc1ccc(NC(=O)C2CN(S(C)(=O)=O)CC23CCCCC3)c(OC)c1` (centres undefined) reads 860 s; that for `COC(=O)C1=CN(c2cccc(Br)c2)c2cc(F)ccc2S1(=O)=O`, 903 s. The value for `CC(C)NC(=O)C1CCN(C(=O)c2cc(-c3ccncc3)n[nH]2)CC1` was 556 s. As for `CCc1nc2cc(-c3noc(-c4ccc(OC)c(OC)c4)n3)ccc2o1`, the RP-LC retention time turned out to be 1080 s.

Turning to `O=C(c1cccc(C(F)(F)F)c1)N1CCN(c2cc(-n3ccnc3)ncn2)CC1`, the RP-LC retention time was 606 s.

In turn, `COc1ccc2cc3c(=O)n(-c4ccc(C(=O)O)cc4)nc-3oc2c1` returned an RP-LC retention time of 891 s. `CCOc1cccc(-c2noc(CN3C(=O)COc4cc(Cl)ccc43)n2)c1` yielded an RP-LC retention time of 1180 s. `O=C(CC1CCCC1)N1CCN(c2nc(CN3CCCCC3)cs2)CC1` gave an RP-LC retention time of 642 s. The result for `COc1ccc(C)cc1NC(=O)N1CC(c2nc(C(C)C)nn2C)C1` reads 710 s. The result for `Cc1onc(C(=O)N2CCc3c(c(-c4nncn4CC4CC4)nn3C)C2)c1Cn1cc(Cl)cn1` reads 735 s; that for `C=CCNC(=O)C(=O)N1CCN(c2ccc(OC)cc2)CC1`, 625 s; that for `Cc1nc(C)c(C(=O)Nc2cc(F)ccc2F)s1`, 783 s.

Turning to `O=C(Nc1ccc(Cl)c(Cl)c1)N1CC(c2nc(-c3cnccn3)no2)C1`, the RP-LC retention time is 746 s. For `O=C(NCCn1nc(-c2ccncc2)ccc1=O)c1ccc(C(F)(F)F)cc1`, the RP-LC retention time worked out at 570 s. The result for `COc1ccc(C)cc1NC(=O)N1CCN(Cc2nc3cc(C)ccc3o2)CC1` reads 761 s; that for `C=CCn1c(=O)c(=O)n(Cc2ccc(C(=O)N3CCN(c4ncccn4)CC3)cc2)c2ccccc21`, 722 s; that for `CN1CCN(CCNC(=O)C2CCN(c3nc4ccccc4n(C)c3=O)CC2)CC1`, 588 s.

The compound `COCCN1CCn2cc(S(=O)(=O)Nc3cccc(OC)c3)cc2C1=O` came in with an RP-LC retention time of 670 s. The value for `CCOC(=O)C1CCN(C(=O)c2nc(N(CC)CC)c3c(C)cc(C)nc3n2)CC1` was 657 s; that for `COc1ccccc1NC(=O)Nc1c(C)nc2ccc(C)cn2c1=O` was 616 s. Regarding `Cc1ccc(S(=O)(=O)N2CCN(S(=O)(=O)N3CCCCC3)CC2)cc1`, the RP-LC retention time stood at 922 s. The value for `O=C(Nc1cccc(C(F)(F)F)c1)N1C[C@H]2C[C@H](C1)[C@H]1CCCC(=O)N1C2` was 731 s; that for `CCN(C(=O)c1cc2c(s1)N(CC1CC1)CCCC2)C(C)C` was 1260 s; that for `Cc1ccc2nc(C(=O)N3CCC(C)CC3)cc(Nc3ccc(N(C)C)cc3)c2c1` was 745 s. `O=C(CSc1nc(N2CCCCC2)nc2ccccc12)Nc1cccc(Br)c1` displayed an RP-LC retention time of 812 s. The result for `O=c1oc2cc(O)ccc2cc1-c1cc(F)cc(F)c1` reads 908 s; that for `O=C(Cn1ncc2c(N3CCN(c4ccccn4)CC3)ncnc21)NCc1ccc(F)c(Cl)c1`, 628 s; that for `COc1ccc(NC(=O)c2cc(C(C)(C)C)n3nccc3n2)cc1OC`, 1110 s.

The compound `Cn1c(CNC(=O)CN2CCN(Cc3ccc(F)cc3)C2=O)nc2ccccc21` showed an RP-LC retention time of 628 s.

`CCn1c(=O)c(C(=O)NCc2ccc(F)cc2F)nc2cccnc21`: the RP-LC retention time amounted to 816 s.

The compound `CC(Oc1ccc(C(C)(C)C)cc1)C(=O)Nc1ccnn1Cc1ccco1` (centres undefined) displayed an RP-LC retention time of 1020 s. On to `CC(C)=CCOc1cc(O)c2c(=O)cc(-c3ccccc3)oc2c1`, for which the RP-LC retention time was 666 s. The value for `CN1CCn2cc(S(=O)(=O)Nc3ccc(Cl)cc3F)cc2C1=O` was 723 s; that for `O=C(NC1CC1)C1CCCN(c2nc3ncn(CC(=O)N4CCc5ccccc5C4)c(=O)c3s2)C1` (centres undefined) was 689 s; that for `Cc1nc2cc(-c3noc(-c4c(F)cccc4Cl)n3)ccc2o1` was 1100 s.

Compound `COc1cccc(-c2cc3c(=O)n(Cc4nc(-c5cccc(Br)c5)no4)ccn3n2)c1` had an RP-LC retention time of 1080 s. Take `CCCOC(=O)c1cccc(Nc2nc(C(=O)OCC)nc3ccccc23)c1`: the RP-LC retention time was 955 s. The value for `CC(CCNC(=O)CN1C(=O)CCn2nc(-c3cn(C)c4ccccc34)cc21)N1CCCC1` (centres undefined) was 616 s; that for `O[Si](CCCN1CCCCC1)(c1ccc(F)cc1)C1CCCCC1` (centres undefined) was 865 s. The value for `O=C(Nc1c(-c2ccc(F)cc2)nc2ccccn12)c1ccc(Br)cc1` was 716 s. The result for `Cc1oc(-c2[nH]ncc2C(=O)N2CCCCC2)cc1S(=O)(=O)N1CCOCC1` reads 654 s.

For `COc1ccc(CNC(=O)Nc2cc3c(cc2N2CCCC2)n(C)c(=O)n3C)cc1`, the RP-LC retention time is 750 s.

As for `CCc1nc(NCc2ccc(OC)c(OC)c2)ncc1C(=O)O`, the RP-LC retention time was found to be 682 s. The result for `Cc1noc(-c2cccnc2N2CCCN(Cc3cc(F)cc(F)c3)CC2)n1` reads 659 s; that for `O=C(c1cc(N2C(=O)CCS2(=O)=O)ccc1Cl)N1CCN(c2ccccn2)CC1`, 566 s; that for `O=C(NCc1cc(F)ccc1F)C1CCN(c2cncnc2N2CCCC2)CC1`, 653 s. The value for `OCCN1CCN(CCCN2c3ccccc3C=Cc3ccccc32)CC1` was 692 s. The result for `O=C(NCC1CC1)c1ccc2c(c1)nc1n2CCN(C2CCCCC2)C1=O` reads 706 s; that for `Cn1nc(C(=O)N2CCOCC2)c2c1CCN(C(=O)Nc1ccccc1)C2`, 658 s. `O=C(NCc1cccnc1)c1cc2cc(Cl)ccc2[nH]1` gave an RP-LC retention time of 632 s. The value for `CC(C)c1ccc(CNC(=O)Cc2nnc(-c3ccc4ncccc4c3)o2)cc1` was 811 s. The result for `CSc1ccc(NC(=O)c2ccccc2C(F)(F)F)nn1` reads 765 s; that for `CS(=O)(=O)c1ccc(C(=O)Nc2cccc(Cl)c2Cl)cc1`, 791 s; that for `Cc1nc2c(NS(=O)(=O)c3ccc(F)cc3)cccn2n1`, 715 s.

With `Cc1ccc(CNC(=O)c2ccc3ccnc(N4CCN(c5ccc(Cl)cc5)CC4)c3c2)o1`, the RP-LC retention time was 887 s.

In the case of `CC(Oc1ccc(-c2cnc3ccccc3n2)cc1)C(=O)N1CCOCC1` (centres undefined), the RP-LC retention time was found to be 751 s. The value for `Cc1ccc(-c2nc3nc4c(c(N5CCCC5)n3n2)CCC4)cc1` was 909 s; that for `COc1ccc2c(c1)CCCN2C(N)=Nc1ccc(Cl)cc1` was 753 s.

For `Cc1csc(-c2cc(S(=O)(=O)NCCC(C)C)cn2CC(=O)N2CCCCC2)n1`, the RP-LC retention time is 1010 s.

Take `CCc1cc(=O)n(CC(=O)N(CC)Cc2ccccc2)c(N)n1`: the RP-LC retention time came to 639 s. The result for `CCOc1ccc(-n2cc(-c3nc(-c4cccc(OC)c4)no3)c3ccccc3c2=O)cc1` reads 1390 s. The value for `O=C(NCCN1CCN(C(=O)c2cccs2)CC1)Nc1ccc(C(F)(F)F)cc1` was 586 s.

As for `O=C(Cn1cccn1)N1CC(c2nc(-c3cccs3)no2)C1`, the RP-LC retention time was determined as 644 s. The value for `O=C(C1CC1)N1CCc2sc(S(=O)(=O)NCc3cccc(Cl)c3)cc2C1` was 923 s. The compound `COc1ccc(NC(=O)N2CCc3c(c(-c4nnc(-c5ccccc5Cl)o4)nn3C)C2)cc1` had an RP-LC retention time of 853 s. The result for `COC(=O)c1ccc2c(=O)n(-c3ccccc3)c(N3CCCC3)nc2c1` reads 908 s; that for `Cc1nc(-c2csc(S(=O)(=O)N3CCC(C(=O)NCCc4ccc(Cl)cc4)CC3)c2)no1`, 938 s. `Cn1nc(-c2ccccc2)cc1C(=O)Nc1nc2c(s1)CN(S(=O)(=O)C1CC1)CC2` showed an RP-LC retention time of 854 s.
